These compounds were tested on BMDC primary cells (assay: Luc mRNA LNP transfection on BMDC primary cells (Embodiment 13, Table 3)). Conditions: 16 h, ONE-Glo Luciferase.
Assay type: cell-based, C57BL/6 mice
Experimental: Preparation method: the same as that described in Embodiment 7.
Animal preparation: 6-week-old female C57BL/6 mice with the body weight about 20 g were selected. The feeding environment was an SPF stage feeding room. Animal tests were strictly performed according to the guide of the national health institute and the animal ethics requirements.
Cell acquisition: C57BL/6 mice were killed through cervical dislocation, and were soaked for 5 min in 75% ethyl alcohol. Dissection was performed to obtain thigh and calf tibiae of the mice. Attached muscles were removed to expose sclerotin. Then, bone marrow in tibiae was blown out by using a 1 mL injector sucked with PBS. After the bone marrow was blown away, impurities were filtered away by a 50 μm filter screen. A red blood cell lysis buffer (3-4 mL) was added into an obtained filtrate. Then, after placement for 5 min, 800 g centrifugation was performed for 5 min to remove the supernatant. The obtained cells were placed into a 1640 culture medium (containing 10% fetal calf serum, 20 ng/mL GMCSF and 10 ng/ml IL4) to be resuspended, and were inoculated into a 6-well plate at an inoculation density of 100000 cells/ml culture medium. The materials were placed into a 37° C. cell incubator containing 5% CO2. Half liquid change was performed once every 2 days. Suspended cells and loose wall attached cells were collected on the seventh day, and were […], and the volume of a culture medium was 100 μL.
Cell transfection: lipid nanoparticles coated with luciferase mRNA were added into a 96-well all-white ELISA plate laid with primary cells. The adding volume of the mRNA lipid nanoparticles in each well was controlled to be 10 μL. Then, the materials were put into a 37° C. incubator containing 5% CO2 for 16 h.
Transfection efficiency detection: 20 μL of a substrate ONE-Glo™ Luciferase was added into each well of a 96-well all-white ELISA plate. After 1 min, detection was performed by a multifunctional or multimode microplate reader.

SMILES	Luciferase luminescence intensity
CCCCCCCCCCC(COC(=O)C(CCCCCCC)CCCCCCCCC)OC(=O)CCCN(C)C (stereo not drawn) [E7C79A9]	5.6E+ 04
CCCCCCCCCCCCCCCCCC(=O)OCC(CCCCCCCC)OC(=O)CCCCCN(C)C (stereo not drawn) [E5C13A12]	1.1E+ 04
CCCCCCCCCC(COC(=O)C(CCCCCCC)CCCCCCCCC)OC(=O)C(C)CCN(C)C (stereo not drawn) [E6C79A10]	4.6E+ 04
CCCCCCCCCCCCCCC(C)C(=O)OCC(CCCCCCCCCCC)OC(=O)CCCCN(C)C (stereo not drawn) [E8C74A11]	4.0E+ 04
CCCCCCCCCCCCCCC(=O)OCC(CCCCCC(CC)CC)OC(=O)CCCCCN(C)C (stereo not drawn) [E20C10A12]	3.6E+ 04
CCCCCCCCCCCCCCCC(=O)OCC(OC(=O)CCCN(C)C)C(CCCC)CCCCC (stereo not drawn) [E21C11A9]	8.7E+ 03
CCCCCCCCCCCCC(COC(=O)C(CC)CCCCCCCCC)OC(=O)C1CCN(C)CC1 (stereo not drawn) [E9C60A23]	1.8E+ 04
CCCCCCCCCC(COC(=O)C(CCCCCC)CCCCCCCC)OC(=O)CCCCN(C)C (stereo not drawn) [E6C71A11]	3.4E+ 04
CCCCCCCCCCCC(COC(=O)C(CCCCCCC)CCCCCCCCC)OC(=O)CCCN(C)C (stereo not drawn) [E8C79A9]	3.6E+ 04
CCCCCCCCCCCCC(COC(=O)C(CCCCCC)CCCCCC)OC(=O)CCCN(C)C (stereo not drawn) [E9C64A9]	8.9E+ 04
CCCCCC(CCCC)C(COC(=O)CCCCCCCCCCCC(C)C)OC(=O)CCCN(C)C (stereo not drawn) [E21C67A9]	3.2E+ 04
CCCCCCCCCCCCCCC(C)C(=O)OCC(CCCCCCCCCC)OC(=O)CCCN(C)C (stereo not drawn) [E7C74A9]	4.8E+ 04
CCCCCCCCCCCCCC(C)C(=O)OCC(CCCCCCCCC)OC(=O)CCCCN(C)C (stereo not drawn) [E6C72A11]	5.0E+ 04
CCCCCCCCCCCCCCCC(=O)OCC(CCCCCC(CC)CC)OC(=O)CCCN(C)C (stereo not drawn) [E20C11A9, 2-((4-(Dimethylamino)Butyryl)Oxy)-8-Ethyldecyl Palmitate]	9.9E+ 04
CCCCCCCCCCCCCCC(C)C(=O)OCC(CCCCCCC)OC(=O)CCCCN(C)C (stereo not drawn) [E4C74A11]	6.0E+ 04
CCCCCCCCCCCCCCCC(=O)OCC(CCCCCC(CC)CC)OC(=O)C1CCN(C)CC1 (stereo not drawn) [E20C11A23]	1.6E+ 04
CCCCCCCCCCCCCC(=O)OC(CC(F)(F)C(F)(F)C(F)(F)C(F)(F)C(F)(F)C(F)(F)F)OC(=O)CCCN(C)C (stereo not drawn) [E24C9A9, 1-((4-(Dimethylamino)Butyryl)Oxy)-3,3,4,4,5,5,6,6,7,7,8,8,8-Tridecafluorooctyl Tetradecanoate]	1.1E+ 04
CCCCCCCCCCC(COC(=O)C(CCCCCC)CCCCCCCC)OC(=O)C(C)CCN(C)C (stereo not drawn) [E7C71A10]	8.3E+ 04
CCCCCCCCCCCCCC(C)C(=O)OCC(CCCCCCC)OC(=O)CCCCN(C)C (stereo not drawn) [E4C72A11]	5.8E+ 04
CCCCCCCCCCCCCC(C)C(=O)OCC(CCCCCCCCCCC)OC(=O)CCCCN(C)C (stereo not drawn) [E8C72A11]	7.3E+ 04
CCCCCCCCCCCCCC(=O)OCC(CCCCCC(CC)CC)OC(=O)C(C)CCN(C)C (stereo not drawn) [E20C9A10]	2.7E+ 04
CCCCCCCCCCCC(COC(=O)C(CCCCCC)CCCCCC)OC(=O)C(C)CCN(C)C (stereo not drawn) [E9C64A10]	6.1E+ 04
CCCCCCCCCC(COC(=O)C(CCCCCCC)CCCCCCCCC)OC(=O)CCCCCN(C)C (stereo not drawn) [E6C79A12]	2.5E+ 04
CCCCCCCCCCCCCCC(C)C(=O)OCC(CCCCCCCCCCCCC)OC(=O)C1CCN(C)CC1 (stereo not drawn) [E10C74A23]	1.0E+ 04
CCCCCCCCCCC(COC(=O)C(CCCCCCC)CCCCCCCCC)OC(=O)C(C)CCN(C)C (stereo not drawn) [E7C79A10]	3.6E+ 04
CCCCCCCCCCCCCCC(C)C(=O)OCC(CCCCCCC)OC(=O)CCCN(C)C (stereo not drawn) [E4C74A9]	6.9E+ 04
CCCCCCCCCCCCC(COC(=O)C(CCC)CCCCCCCC)OC(=O)C(C)CCN(C)C (stereo not drawn) [E9C62A10]	4.3E+ 04

— US12679801B2, “Amino lipid and preparation method and application thereof” (Shenzhen MagicRNA Biotechnology Co., Ltd., priority 2022, dated 2026)
